Results taken from patent US11976083B2, “Inhibitors of peptidylarginine deiminases” (Gilead Sciences, Inc., priority 2020, dated 2024).

Biological target: T1, human PAD4 (Homo sapiens, UniProt Q9UM07)
T1 construct: human PAD4 (NM_012387), A2-P663, was PCR amplified; His-SUMO (N, cleaved yes); made in house; host or cells: E. coli BL21(DE3)
Experiment: In vitro PAD4 BAEE biochemical assay
Details: BAEE substrate 3 mM, 5 nM PAD4, 2 mM calcium chloride; geometric mean of multiple experiments
Procedure, shortened: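 Fluorescence read-out (ex 405/em 535 nm) of isoindole formed from ammonia, o-phthalaldehyde and DTT after EDTA stop. Reaction: 5 nM PAD4, 2 mM CaCl2, 3 mM BAEE, 2 h, 25 °C, after 30 min enzyme–compound preincubation. Normalised to BB-Cl-Amidine (50 µM) and DMSO controls.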

T1 sequence (Q9UM07 2-663): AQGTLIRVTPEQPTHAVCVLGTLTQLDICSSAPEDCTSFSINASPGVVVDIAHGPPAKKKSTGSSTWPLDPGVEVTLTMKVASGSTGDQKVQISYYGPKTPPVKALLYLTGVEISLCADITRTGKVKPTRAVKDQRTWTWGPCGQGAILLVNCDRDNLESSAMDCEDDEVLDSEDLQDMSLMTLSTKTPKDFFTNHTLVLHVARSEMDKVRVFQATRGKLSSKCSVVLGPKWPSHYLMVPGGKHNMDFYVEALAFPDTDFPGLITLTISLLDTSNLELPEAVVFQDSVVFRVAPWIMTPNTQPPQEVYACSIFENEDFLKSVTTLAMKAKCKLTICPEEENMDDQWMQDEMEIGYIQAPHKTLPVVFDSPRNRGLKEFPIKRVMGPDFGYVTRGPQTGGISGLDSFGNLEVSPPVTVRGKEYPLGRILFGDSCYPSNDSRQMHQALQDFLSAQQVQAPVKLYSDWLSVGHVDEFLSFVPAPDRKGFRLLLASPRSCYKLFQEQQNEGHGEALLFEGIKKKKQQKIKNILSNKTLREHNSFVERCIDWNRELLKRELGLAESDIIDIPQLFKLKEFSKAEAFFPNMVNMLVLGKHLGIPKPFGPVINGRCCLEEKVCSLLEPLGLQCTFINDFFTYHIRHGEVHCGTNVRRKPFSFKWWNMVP

| Structure (SMILES) | IC50 |
| --- | --- |
| C[C@@H]1[C@H](N)CCCN1C(=O)c1cc(F)c2c(c1)nc(-c1cc3ccc4nc3n1CC(F)(F)CCC[C@@H]1C[C@H]1C(=O)N[C@@H]4C)n2[C@@H]1C[C@@H]1F [Example 747, (2~{R},5~{R},7~{R})-14-[5-[(2~{R},3~{R})-3-amino-2-methyl-piperidine-1-carbonyl]-7-fluoro-1-[(1~{R},2~{S})-2-fluorocyclopropyl]benzimidazol-2-yl]-11,11-difluoro-2-methyl-3,13,19-triazatetracyclo [11.5.2.0^{5,7}.0^{16,20}] icosa-1(19),14,16(20),17-tetraen-4-one] | 10 nM |
| C[C@@H]1[C@H](N)CCCN1C(=O)c1cc(F)c2c(c1)nc(-c1cc3ccc4nc3n1CCCCCc1ncc3ccccc3c1C(=O)N[C@@H]4C)n2C1CC1 [Example 748, (2~{R})-21-[5-[(2~{R},3~ {R})-3-amino-2-methyl-piperidine-1-carbonyl]-1-cyclopropyl-7-fluoro-benzimidazol-2-yl]-2-methyl-3,13,20,26-tetrazapentacyclo[18.5.2.0^ {5,14}.0^{6,11}.0^{23,27}] heptacosa-1(26),5(14),6(11), 7,9,12,21,23(27),24-nonaen-4-one] | 25 nM |
| COc1cc(C(=O)N2C[C@H]3CC[C@@H]2[C@@H]3N)cc2nc(-c3cc4ccc5cc4n3CCCCCCC(C)(C)C(=O)N[C@@H]5C)n(C)c12 [Example 749, (11~{R})-17-[5-[(1~{R},4~ {R},7~{R})-7-amino-2-azabicyclo[2.2.1]heptane-2-carbonyl]-7-methoxy-1-methyl-benzimidazol-2-yl]-8,8,11-trimethyl-1,10-diazatricyclo[10.5.2.0^{15,18}] nonadeca-12(19), 13,15(18),16-tetraen-9-one] | 17 nM |
| C[C@@H]1c2ccc3cc(-c4nc5cc(C(=O)N[C@H]6CNCC[C@@H]6F)c(F)cc5n4C4CC4)n(c3n2)CCCCCc2nc(Cl)ccc2C(=O)N1C [Example 750, 2-[(2~{R})-8-chloro-2,3-dimethyl-4-oxo-3,9,16,22-tetrazatetracyclo[14.5.2.0^ {5,10}.0^{19,23}]tricosa-1(22),5(10),6,8,17,19(23),20-heptaen-17-yl]-1-cyclopropyl-6-fluoro-~{N}-[(3~{S},4~ {S})-4-fluoro-3-piperidyl] benzimidazole-5-carboxamide] | 28 nM |
| C[C@H]1NC(=O)c2ccc(Cl)nc2CCCCCn2c(-c3nc4cc(C(=O)N[C@H]5CNCC[C@@H]5F)c(F)cc4n3C3CC3)cc3ccc1nc32 [Example 751, 2-[(2~{R})-8-chloro-2-methyl-4-oxo-3,9,16,22-tetrazatetracyclo[14.5.2.0^ {5,10}.0^{19,23}]tricosa-1(22),5(10),6,8,17,19(23),20-heptaen-17-yl]-1-cyclopropyl-6-fluoro-~{N}-[(3~{S}, 4~{S})-4-fluoro-3-piperidyl]benzimidazole-5-carboxamide] | 32 nM |
| COc1cc(C(=O)N2[C@@H]3CC[C@@H](N)[C@H]2CC3)cc2nc(-c3cc4ccc5nc4n3CC(F)(F)CCC[C@@H]3C[C@H]3C(=O)N[C@@H]5C)n(C)c12 [Example 752, (2~{R},5~{R},7~{R})-14-[5-[(1~{R},2~{R},5~{R})-2-amino-8-azabicyclo[3.2.1]octane-8-carbonyl]-7-methoxy-1-methyl-benzimidazol-2-yl]-11,11-difluoro-2-methyl-3,13,19-triazatetracyclo[11.5.2.0^ {5,7}.0^{16,20}]icosa-1(19),14,16(20),17-tetraen-4-one] | 30 nM |
| C[C@@H]1[C@H](N)CCCN1C(=O)c1ccc2c(nc(-c3cc4ccc5nc4n3CC/C=C/C[C@@H]3C[C@H]3C(=O)N[C@@H]5C)n2C2CC2)c1F [Example 753, (2~{R},5~{R},7~{R},9~{E})-14-[5-[(2~{R},3~{R})-3-amino-2-methyl-piperidine-1-carbonyl]-1-cyclopropyl-4-fluoro-benzimidazol-2-yl]-2-methyl-3,13,19-triazatetracyclo [11.5.2.0^{5,7}.0^{16,20}] icosa-1(19),9,14,16(20), 17-pentaen-4-one] | 113 nM |
| C[C@H]1NC(=O)c2cc3ccccc3nc2CCCCCn2c(-c3nc4cc(C(=O)N5C[C@H](N)[C@@H]6CC[C@H]5C6)c(F)c(F)c4n3C3CC3)cc3ccc1nc32 [Example 754, (2~{R})-21-[5-[(1~{S},4~ {R},5~{R})-4-amino-2-azabicyclo[3.2.1]octane-2-carbonyl]-1-cyclopropyl-6,7-difluoro-benzimidazol-2-yl]-2-methyl-3,13,20,26-tetrazapentacyclo[18.5.2.0^ {5,14}.0^{7,12}.0^{23,27}] heptacosa-1(26),5(14),6,8, 10,12,21,23(27),24-nonaen-4-one] | 59 nM |
| C[C@H]1NC(=O)[C@@H]2C[C@H]2CCCC(F)(F)Cn2c(-c3nc4cc(C(=O)N5C[C@H](N)[C@@H]6CC[C@H]5C6)cc(F)c4n3[C@H]3C[C@H]3C(F)F)cc3ccc1nc32 [Example 755, (2~{R},5~{R},7~{R})-14-[5-[(1~{S},4~{R},5~{R})-4-amino-2-azabicyclo[3.2.1]octane-2-carbonyl]-1-[(1~{S},2~{R})-2-(difluoromethyl)cyclopropyl]-7-fluoro-benzimidazol-2-yl]-11,11-difluoro-2-methyl-3,13,19-triazatetracyclo[11.5.2.0^ {5,7}.0^{16,20}]icosa-1(19),14,16(20),17-tetraen-4-one] | 29 nM |
| C[C@H]1NC(=O)[C@@H]2C[C@H]2CCCC(F)(F)Cn2c(-c3nc4cc(C(=O)N5C[C@H](N)[C@@H]6CC[C@H]5C6)cc(F)c4n3[C@@H]3C[C@@H]3C(F)F)cc3ccc1nc32 [Example 756, (2~{R},5~{R},7~{R})-14-[5-[(1~{S},4~{R},5~{R})-4-amino-2-azabicyclo[3.2.1]octane-2-carbonyl]-1-[(1~{R},2~{S})-2-(difluoromethyl)cyclopropyl]-7-fluoro-benzimidazol-2-yl]-11,11-difluoro-2-methyl-3,13,19-triazatetracyclo [11.5.2.0^{5,7}.0^{16,20}] icosa-1(19),14,16(20),17-tetraen-4-one] | 31 nM |
| COc1cc(C(=O)N2C[C@H](N)[C@@H]3CC[C@H]2C3)cc2nc(-c3cc4ccc5nc4n3CCCCC[C@H]3[C@H](C(=O)N[C@@H]5C)C3(F)F)n(C)c12 [Example 757, (2~{R},5~{R},7~{S})-14-[5-[(1~{S},4~{R},5~{R})-4-amino-2-azabicyclo[3.2.1]octane-2-carbonyl]-7-methoxy-1-methyl-benzimidazol-2-yl]-6,6-difluoro-2-methyl-3,13,19-triazatetracyclo[11.5.2.0^ {5,7}.0^{16,20}]icosa-1(19), 14,16(20),17-tetraen-4-one] | 5 nM |
| COc1cc(C(=O)N2C[C@H](N)[C@@H]3CC[C@H]2C3)cc2nc(-c3cc4ccc5nc4n3CCCCC[C@]3(F)C[C@H]3C(=O)N[C@@H]5C)c(C3CC3)n12 [Example 758, (2~{R},5~{S},7~{S})-14-[7-[(1~{S},4~{R},5~{R})-4-amino-2-azabicyclo[3.2.1]octane-2-carbonyl]-3-cyclopropyl-5-methoxy-imidazo[1,2-a]pyridin-2-yl]-7-fluoro-2-methyl-3,13,19-triazatetracyclo [11.5.2.0^{5,7}.0^{16,20}] icosa-1(19),14,16(20),17-tetraen-4-one] | 17 nM |
